Here are results for five compounds from the NIST ThermoML archive (doi:10.1016/j.fluid.2011.08.009).

± gives the expanded uncertainty stated by the source.

For the data set the following is noted: Liquid, Closed cell (Static) method.

On to `CCC(C)O` (stereo not drawn) [butan-2-ol], for which the vapor or sublimation pressure (usually the equilibrium pressure above the liquid or solid) is 10.74 ± 0.16 kPa (323.18 K), 14.55 ± 0.21 kPa (329.22 K), 28.43 ± 0.28 kPa (342.83 K) and 44.66 ± 0.35 kPa (352.68 K).

As for `CCCCCCCCCCCC` [dodecane], the “vapor or sublimation pressure” value reads like this: (342.18 K) 0.36 ± 0.1 kPa; (352.68 K) 0.75 ± 0.1 kPa.

As for `CCCCCC` [hexane], the “vapor or sublimation pressure” value (329.22 K) is recorded as 65.63 ± 0.67 kPa.

For `CCCO` [propan-1-ol], the “vapor or sublimation pressure” value (313.17 K) came out at 6.99 ± 0.19 kPa, the “vapor or sublimation pressure” value (342.83 K) is listed as 31.45 ± 0.24 kPa and the “vapor or sublimation pressure” value (352.68 K) amounted to 49.8 ± 0.4 kPa.

As for `O` [water], the “vapor or sublimation pressure” value is, setting by setting: (313.17 K) 7.36 ± 0.14 kPa; (323.18 K) 12.18 ± 0.19 kPa; (342.83 K) 30.65 ± 0.22 kPa.
